The assay relates to Plasmodium berghei. Briefly: Luciferase/luciferin-expressing antifolate-resistant parasites were used to infect a culture of HepG2 cells that were pre-incubated with compounds. Infected hepatocytes emit light due to the luciferase reaction. Assay results are presented as the percent inhibition of light emission compared to control. […]. It is filed as functional. The settings on record: sporozoite; for IC90: read-out: LUCIFERASE INFECTION ASSAY - IC90.

Where [1] appears, read: read-out: LUCIFERASE INFECTION ASSAY - IC50.

In the case of `Cc1onc(-c2ccc(Cl)cc2Cl)c1-c1csc(N/N=C/c2ccccc2Cl)n1`, the IC90 was > 7.12 µM. In addition, the 50% inhibitory concentration (IC50) (FFLUC_HILL_SLOPE 8.51, FFLUC_R_SQUARED 0.488, HEPG2TOX_HILL_SLOPE 2.88, HEPG2TOX_R_SQUARED 0.834, read-out: LUCIFERASE INFECTION ASSAY - IC50) is > 7.12 µM.

For the compound `CCCn1c(SCC(=O)Nc2cc(S(=O)(=O)N(CC)c3ccccc3)ccc2Cl)nc2ccccc2c1=O`, the IC90 is > 10 µM. For the same compound, the IC50 (FFLUC_HILL_SLOPE 3.64, FFLUC_R_SQUARED 0.239, PBLUC_HILL_SLOPE 6.57, PBLUC_R_SQUARED 0.539, read-out: LUCIFERASE INFECTION ASSAY - IC50) was found to be 8.45 µM.

Take `CCOC(=O)c1c(C)[nH]c(C(=O)C(C)OC(=O)CN2C(=O)C3CC=CCC3C2=O)c1C` (centres undefined): the IC90 was > 10 µM. Further, under “HEPG2TOX_HILL_SLOPE 1.33, HEPG2TOX_R_SQUARED 0.914, read-out: LUCIFERASE INFECTION ASSAY - IC50”, the half-inhibitory concentration (IC50) was > 10 µM.

As for `CCn1c(=O)n(CC(=O)Nc2ccc(NC(=O)NC3CC3)cc2)c2ccccc21`, the IC90 was > 10 µM. Besides, the half-maximal inhibitory concentration (IC50) under setting [1] was > 10 µM.

Take `COc1cc(C(=O)N2CC=C(c3c[nH]c4ccccc34)CC2)ccc1C`: the concentration for an effect of 90% (IC90) is > 10 µM. The concentration for half-maximal inhibition (IC50) under setting [1] is > 10 µM.

Take `Cc1nn(CC(C)C)c(Cl)c1C(=O)Nc1nc(-c2ccccn2)cs1`: the IC90 is 3.35 µM. For the same compound, the IC50 (HEPG2TOX_HILL_SLOPE 0.847, HEPG2TOX_R_SQUARED 0.93, PBLUC_HILL_SLOPE 12, PBLUC_R_SQUARED 0.706, read-out: LUCIFERASE INFECTION ASSAY - IC50) was 2.79 µM.

`Cc1oc2c(c1C(=O)NC(C)(C)C)C(=O)c1ccccc1C2=O`: the IC90 came to 4.63 µM. Under “HEPG2TOX_HILL_SLOPE 2.79, HEPG2TOX_R_SQUARED 0.986, PBLUC_HILL_SLOPE 0.957, PBLUC_R_SQUARED 0.592, read-out: LUCIFERASE INFECTION ASSAY - IC50”, the IC50 worked out at 0.466 µM.

In the case of `C=CCN(C(=O)c1cc(C2CC2)nc2ccccc12)c1nc2c(s1)CCCC2`, the IC90 is > 10 µM. The IC50 under setting [1] was > 10 µM.

On to `Cc1ccc(-n2ncc(Cl)c(Cl)c2=O)cc1`, for which the IC90 is > 12.9 µM. The concentration for half-maximal inhibition (IC50) (FFLUC_HILL_SLOPE 14.5, FFLUC_R_SQUARED 0.489, HEPG2TOX_HILL_SLOPE 2.71, HEPG2TOX_R_SQUARED 0.789, PBLUC_HILL_SLOPE 3.3, PBLUC_R_SQUARED 0.431, read-out: LUCIFERASE INFECTION ASSAY - IC50) came to 8.02 µM.

As for `Cc1oc2cc(OCC(=O)N3CCc4ccccc43)ccc2c(=O)c1-c1c(F)cccc1Cl`, the IC90 was > 10 µM. Also, the IC50 (FFLUC_HILL_SLOPE 15.3, FFLUC_R_SQUARED 0.621, read-out: LUCIFERASE INFECTION ASSAY - IC50) was > 10 µM.

Turning to `COCC/N=c1\scc(-c2ccc(OC(F)F)cc2)n1/N=C/c1ccccc1F`, the IC90 was > 10 µM. Besides, the half-maximal inhibitory concentration (IC50) under setting [1] was > 10 µM.

As to `Cc1cc(C)c(CNC(=O)N(C)Cc2cn(-c3ccccc3)nc2-c2ccccc2)c(=O)[nH]1`, the IC90 is > 10 µM. In addition, the IC50 under setting [1] is > 10 µM.

With `COc1ccc(Sc2sc(C(C)=O)cc2[N+](=O)[O-])cc1`, the IC90 is > 10.7 µM. The IC50 under setting [1] is > 10.7 µM.

For `N#Cc1ccsc1NC(=O)COC(=O)c1c2c(nc3ccccc13)/C(=C/c1cccc([N+](=O)[O-])c1)CCC2`, the 90% effect concentration (IC90) is > 10 µM. Besides, the half-inhibitory concentration (IC50) (HEPG2TOX_HILL_SLOPE 2.36, HEPG2TOX_R_SQUARED 0.622, PBLUC_HILL_SLOPE 3.04, PBLUC_R_SQUARED 0.408, read-out: LUCIFERASE INFECTION ASSAY - IC50) was 7.71 µM.

Take `Cc1ccc(Nc2cc(-c3ccc(CC(C)C)cc3)ncn2)cc1NS(C)(=O)=O`: the concentration for an effect of 90% (IC90) was > 8.04 µM. Further, under “PBLUC_HILL_SLOPE 12.9, PBLUC_R_SQUARED 0.53, read-out: LUCIFERASE INFECTION ASSAY - IC50”, the concentration for half-maximal inhibition (IC50) amounted to 7.03 µM.

Consider `Cc1n[nH]c(=S)n1C1CCCCC1`, for which the IC90 is > 10 µM. Also, under setting [1], the IC50 is > 10 µM.

Regarding `CNC(=O)C(Sc1nnc(Nc2ccc(C(C)C)cc2)s1)C(C)=O` (centres undefined), the IC90 is > 10 µM. Besides, the IC50 under setting [1] is > 10 µM.

As for `O=C(CN1CCN(Cc2ccc(-n3cccn3)cc2)CC1)Nc1ccc(OC(F)(F)F)cc1`, the 90% effect concentration (IC90) is > 10 µM. Moreover, under setting [1], the IC50 was > 10 µM.

Take `Clc1ccc2c(Nc3ccc(N4CCOCC4)cc3)ccnc2c1`: the IC90 was > 10 µM. Moreover, the half-inhibitory concentration (IC50) under setting [1] was > 10 µM.

`C=c1onc(-c2c(F)cccc2Cl)c1=C1NC(c2cc(C(F)(F)F)cc(C(F)(F)F)c2)=NO1`: the concentration for an effect of 90% (IC90) was > 6.71 µM. The half-maximal inhibitory concentration (IC50) (PBLUC_HILL_SLOPE 0.442, PBLUC_R_SQUARED 0.157, read-out: LUCIFERASE INFECTION ASSAY - IC50) was > 6.71 µM.

As to `CC1(C)CC(=O)C=C(Sc2nc3cc(Cl)ccc3s2)C1`, the concentration for an effect of 90% (IC90) was > 10.2 µM. Further, the half-inhibitory concentration (IC50) under setting [1] is > 10.2 µM.

Regarding `Cn1c(=O)c2cc(NC(=O)CC(C)(C)C)ccc2n1Cc1ccccc1`, the IC90 is > 9.39 µM. The half-inhibitory concentration (IC50) under setting [1] is > 9.39 µM.

For `CC(C)NC(=O)c1c(NC(=O)c2cc(F)c(Cl)cc2F)nc2ccccn12`, the concentration for an effect of 90% (IC90) turned out to be 1.42 µM. Further, for the setting “HEPG2TOX_HILL_SLOPE 0.89, HEPG2TOX_R_SQUARED 0.947, PBLUC_HILL_SLOPE 3.47, PBLUC_R_SQUARED 0.71, read-out: LUCIFERASE INFECTION ASSAY - IC50”, the 50% inhibitory concentration (IC50) amounted to 0.755 µM.

Consider `CC(C)(C)C(=O)Nc1ccc(-c2nc3ncccc3o2)c(Cl)c1`, for which the 90% effect concentration (IC90) was found to be 4.94 µM. Besides, where the note is “FFLUC_HILL_SLOPE 2.53, FFLUC_R_SQUARED 0.8, PBLUC_HILL_SLOPE 0.961, PBLUC_R_SQUARED 0.809, read-out: LUCIFERASE INFECTION ASSAY - IC50”, the IC50 turned out to be 0.502 µM.

As to `COc1ccc(Nc2nc(N)nc(CSc3nc4ccccc4o3)n2)cc1`, the IC90 was 3.53 µM. Besides, for the setting “PBLUC_HILL_SLOPE 12.3, PBLUC_R_SQUARED 0.778, read-out: LUCIFERASE INFECTION ASSAY - IC50”, the half-maximal inhibitory concentration (IC50) is 2.95 µM.

Take `C[S+]([O-])c1ccc(C(F)(F)F)cc1[N+](=O)[O-]` (centres undefined): the IC90 is > 13 µM. Also, the IC50 (HEPG2TOX_HILL_SLOPE 9.53, HEPG2TOX_R_SQUARED 0.815, PBLUC_HILL_SLOPE 1.65, PBLUC_R_SQUARED 0.298, read-out: LUCIFERASE INFECTION ASSAY - IC50) was 11.1 µM.

With `O=C1C(=Nc2ccc(O)cc2)C=C(NS(=O)(=O)c2cccs2)c2ccccc21`, the concentration for an effect of 90% (IC90) came to 3.54 µM. Further, for the setting “FFLUC_HILL_SLOPE 12.7, FFLUC_R_SQUARED 0.111, HEPG2TOX_HILL_SLOPE 2.05, HEPG2TOX_R_SQUARED 0.969, PBLUC_HILL_SLOPE 9.12, PBLUC_R_SQUARED 0.459, read-out: LUCIFERASE INFECTION ASSAY - IC50”, the IC50 is 2.78 µM.

Take `O=S(=O)(c1ccc(-c2cc(-c3ccccc3Cl)c3cc(Cl)ccc3n2)cc1)N1CCCCC1`: the IC90 is > 10 µM. In addition, where the note is “FFLUC_HILL_SLOPE 79.3, FFLUC_R_SQUARED 0.555, read-out: LUCIFERASE INFECTION ASSAY - IC50”, the IC50 is > 10 µM.

For the compound `N#CC1c2ccccc2Oc2ccccc21`, the IC90 is > 15.9 µM. Besides, under “FFLUC_HILL_SLOPE 8.54, FFLUC_R_SQUARED 0.413, HEPG2TOX_HILL_SLOPE 16, HEPG2TOX_R_SQUARED 0.746, PBLUC_HILL_SLOPE 2.78, PBLUC_R_SQUARED 0.395, read-out: LUCIFERASE INFECTION ASSAY - IC50”, the IC50 was found to be 10.4 µM.

Take `O=C(c1c[nH]c2ccccc12)C(NCc1ccc(F)cc1)c1ccccc1` (centres undefined): the concentration for an effect of 90% (IC90) is > 10 µM. Also, under setting [1], the concentration for half-maximal inhibition (IC50) is > 10 µM.

Regarding `Cc1cnc(NC(=O)c2ccc(Cl)c(S(=O)(=O)N(Cc3ccccc3)c3ccccc3Cl)c2)s1`, the concentration for an effect of 90% (IC90) was > 10 µM. Besides, under setting [1], the half-inhibitory concentration (IC50) is > 10 µM.

`COc1cccc(-c2cnn3ccc(Nc4ccc(NS(=O)(=O)c5ccc(C)cc5)cc4)nc23)c1`: the IC90 was > 6.8 µM. In addition, the half-inhibitory concentration (IC50) (HEPG2TOX_HILL_SLOPE 3.16, HEPG2TOX_R_SQUARED 0.917, PBLUC_HILL_SLOPE 15.1, PBLUC_R_SQUARED 0.0764, read-out: LUCIFERASE INFECTION ASSAY - IC50) is 6.21 µM.

Turning to `Cn1c(-c2c(-c3ccccc3)n[nH]c2-c2ccccc2O)nc2ccccc21`, the IC90 is > 10 µM. For the same compound, the 50% inhibitory concentration (IC50) (FFLUC_HILL_SLOPE 1.64, FFLUC_R_SQUARED 0.277, read-out: LUCIFERASE INFECTION ASSAY - IC50) was > 10 µM.

As for `CN(CC(=O)Nc1ccccc1N1CCCCCC1)S(=O)(=O)c1ccccc1C#N`, the 90% effect concentration (IC90) is > 10 µM. Further, the IC50 (HEPG2TOX_HILL_SLOPE 3.04, HEPG2TOX_R_SQUARED 0.862, PBLUC_HILL_SLOPE 1.2, PBLUC_R_SQUARED 0.365, read-out: LUCIFERASE INFECTION ASSAY - IC50) turned out to be 9.69 µM.

Take `Cc1cccc(CN2CCC3(CC2)C(=O)N(Cc2ccccn2)C(=O)N3CCc2ccccc2)c1`: the IC90 was > 7.04 µM. In addition, the IC50 (HEPG2TOX_HILL_SLOPE 1.55, HEPG2TOX_R_SQUARED 0.857, PBLUC_HILL_SLOPE 4.1, PBLUC_R_SQUARED 0.48, read-out: LUCIFERASE INFECTION ASSAY - IC50) was 5.65 µM.

On to `Cc1ccc(SC(=O)c2c(C)noc2-c2ccc(Cl)cc2)cc1`, for which the IC90 was > 9.6 µM. In addition, the concentration for half-maximal inhibition (IC50) (HEPG2TOX_HILL_SLOPE 11.7, HEPG2TOX_R_SQUARED 0.856, PBLUC_HILL_SLOPE 3.58, PBLUC_R_SQUARED 0.522, read-out: LUCIFERASE INFECTION ASSAY - IC50) worked out at 7.62 µM.

In the case of `FC(F)(F)Oc1ccc(Nc2nnc(Sc3ncnc4ccsc34)s2)cc1`, the IC90 was > 10 µM. Under “PBLUC_HILL_SLOPE 4.22, PBLUC_R_SQUARED 0.601, read-out: LUCIFERASE INFECTION ASSAY - IC50”, the 50% inhibitory concentration (IC50) worked out at 6.4 µM.

A word on the IC50: it is the midpoint of a concentration-inhibition curve. In general, IC90 refers to the point of the concentration-response curve where the effect stands at 90%.

Values taken from ChEMBL document CHEMBL4483862, “Open-source discovery of chemical leads for next-generation chemoprotective antimalarials” (2018).
